Source: US20180010188A1, “METHOD FOR DETECTING NONSENSE-MEDIATED RNA DECAY” (The Regents of the University of California, priority 2016, published 2018)

Experiments:
Format in all cases: cell-based, mouse
Perk transcripts = experiment: Perk transcript levels by RT-qPCR; details: thapsigargin in control siRNA-pretreated cells
Procedure: Two independent siRNAs reduced the endogenous Perk transcripts to around 20% (FIG. 4A).
Neuro-2a (N2a) cells were maintained in N2a complete media consisting of L-glutamine-free Dulbecco's modified Eagle's medium (DMEM), 10% FBS and 1× GlutaMAX at 37° C. Thapsigargin (VWR, cat. no. 89161-410), ionomycin (Fisher Scientific, cat. no. AG-CN2-0416-M001) and ouabain octahydrate (Fisher Scientific, cat. no. 80055-364) were dissolved in DMSO and stored at −80° C. For the application of these chemicals, 750,000 cells were plated on 35 mm BioLite TC plates and incubated with 2 ml of N2a complete media overnight before treatment with the drugs at the indicated concentrations. The cells were collected at 5 hours post-treatment unless otherwise specified. The PERK inhibitor GSK2606414 (Thermo Fisher, cat. no. 501016108) was dissolved in DMSO and stored at −20° C. N2a cells were incubated with GSK2606414 for 1 hour before thapsigargin treatment. For L-glutamine deprivation, 750,000 N2a cells were plated overnight and switched to L-glutamine-free DMEM with 10% FBS. […]
Trizol (Life Technologies, cat. no. 15596-018) was directly added to the cells or mouse brain tissues to extract total RNA following the Trizol Reagent standard protocol. […] RNA concentrations were measured using a Nanodrop 2000c (Thermo Fisher). […] Relative expression (fold changes) was calculated using the ΔΔCt method. […]

[1] = system: cryptic isoforms of A230046K03Rik, Mib1 and Usp15; experiment: Quantitative analysis of TDP-43-repressed cryptic exon splicing
From the text: To investigate the possible compounding effect of ER stress on TDP-43-mediated cryptic isoforms, we examined the expression of TDP-43-repressed cryptic exons with and without thapsigargin treatment. We designed specific PCR primers flanking the previously reported cryptic exons of A230046K03Rik, Mib1 and Usp15 and performed capillary electrophoresis to measure the ratios of the cryptic isoforms to the normal isoforms. The splicing of cryptic exons was not detected in cells treated with control siRNA or DMSO but was drastically boosted by RNAi-mediated depletion of Tdp-43 (FIGS. 5A-E).
Neuro-2a (N2a) cells were maintained in N2a complete media consisting of L-glutamine-free Dulbecco's modified Eagle's medium (DMEM), 10% FBS and 1× GlutaMAX at 37° C. Thapsigargin (VWR, cat. no. 89161-410), ionomycin (Fisher Scientific, cat. no. AG-CN2-0416-M001) and ouabain octahydrate (Fisher Scientific, cat. no. 80055-364) were dissolved in DMSO and stored at −80° C. […]
We optimized the PCR cycle numbers for Psd-95 (28 cycles), A230046K03Rik, Mib1 and Usp15 and eventually used 29 cycles for relative quantification of the transcript isoforms. […] The molar abundance (nM) of each isoform was quantified using QIAxcel Screengel software v1.4. Splicing of the cryptic exon was determined using the following formula. […]

core NMD factors = experiment: Expression of core NMD factors after thapsigargin; details: 5 hours after thapsigargin treatment (data not shown)
From the text: Thapsigargin is a non-competitive inhibitor of the sarco/endoplasmic reticulum Ca^2+ ATPase (SERCA) (Wictome et al., 1992. Biochem J 283 (Pt 2): 525-529; Lytton et al., 1991. J Biol Chem 266: 17067-17071). Thapsigargin treatment increases intracellular Ca^2+ concentration, which stimulates various Ca^2+ dependent signaling pathways. In fact, Nickless et al. recently reported that intracellular calcium inhibited NMD after administration of thapsigargin (Nickless et al. 2014. Nat Med 20: 961-966). Thapsigargin also induces ER stress. […] The diverging mechanisms reported by these studies were both based on the traditional NMD reporter approach and gene-centric validation. We therefore investigated which of the proposed mechanisms our independent method would support.

Compound: C/C=C(/C)C(=O)O[C@H]1C(C)=C2[C@H]([C@@H]1OC(=O)CCCCCCC)[C@@](C)(OC(C)=O)C[C@H](OC(=O)CCC)[C@@]1(O)[C@H]2OC(=O)[C@@]1(C)O [thapsigargin]
- Perk transcript levels (Perk transcripts): increased
- level of cryptic isoforms in mock-transfected or control siRNA-transfected cells ([1]; 0.2 μM thapsigargin): no effect
- level of cryptic isoforms in TDP-43-deficient cells ([1]; 0.2 μM thapsigargin after siTdp43): further increased
- expression of core NMD factors (core NMD factors): no changes in their expression
